Experimental data as given in patent US10647747B2, “Cyclosporin derivatives and uses thereof” (S&T Global Inc., priority 2010, dated 2020).
pEC50: −log10 of the molar value. *1 amine or outer side, *2 acyl side, *3 side chain or, on linkers, in order; H or OH if unused. Where a SMILES comes first, the peptide text is derived from it. [ ]: non-standard residue; d: D form. The star is where a group is joined. X3 = CC=CCC(C)C(O)C(C(=O)[*:2])N(C)[*:1]; X7 = CN(C(SCCCN1CCOCC1)C(=O)[*:2])[*:1]; NMeI = CC[CH](C)[CH](NC)C(=O)O; NMeL = CN[CH](CC(C)C)C(=O)O; NMeV = CN[CH](C(=O)O)C(C)C; Et2NCH2CH2 = CCN(CC)CC*; NMeC = CN[CH](CS)C(=O)O; NMeS = CN[CH](CO)C(=O)O; Abu = CC[CH](N)C(=O)O

Each molecule was assayed on HCV replicon in cell line ET (luc-ubi-neo/ET), Huh7 human hepatoma (assay: HCV subgenomic replicon assay, luciferase end point). Conditions: HCV subgenomic replicon, cell line ET (luc-ubi-neo/ET) Huh7, luciferase end point; read-out: Antiviral activity EC50.
Type: cell-based

| Structure (SMILES) | pEC50 |
| --- | --- |
| CC=CCC(C)C(O)C1C(=O)NC(CC)C(=O)N(C)C(COCCN2CCOCC2)C(=O)N(C)C(CC(C)(C)OC)C(=O)NC(C(C)C)C(=O)N(C)C(CC(C)C)C(=O)NC(C)C(=O)NC(C)C(=O)N(C)C(CC(C)C)C(=O)N(C)C(CC(C)C)C(=O)N(C)C(C(C)C)C(=O)N1C [[(R)-(2-(N-Morpholino)ethoxy)methyl-Sar]-3-[(γ-methoxy)-N-MeLeu]-4-cyclosporin] | 6.82 |
| CC=CCC(C)C(O)C1C(=O)NC(CC)C(=O)N(C)C(SCCCN2CCOCC2)C(=O)N(C)C(C(C)C)C(=O)NC(C(C)C)C(=O)N(C)C(CC(C)C)C(=O)NC(C)C(=O)NC(C)C(=O)N(C)C(CC(C)C)C(=O)N(C)C(CC(C)C)C(=O)N(C)C(C(C)C)C(=O)N1C [[(S)-(3-(N-Morpholino)propylthio-Sar]-3-[N-MeVal]-4-cyclosporin] (cyclo([X3][Abu][X7][NMeV]V[NMeL]AA[NMeL][NMeL][NMeV]); configuration not given here) | 6.96 |
| C/C=C/C[C@@H](C)[C@@H](O)[C@H]1C(=O)N[C@@H](CC)C(=O)N(C)[C@H](COCCCN2CCCCC2)C(=O)N(C)[C@@H](CC(C)(C)O)C(=O)N[C@@H](C(C)C)C(=O)N(C)[C@@H](CC(C)C)C(=O)N[C@@H](C)C(=O)N[C@H](C)C(=O)N(C)[C@@H](CC(C)C)C(=O)N(C)[C@@H](CC(C)C)C(=O)N(C)[C@@H](C(C)C)C(=O)N1C [[(R)-(3-(N-Piperidinyl)propoxy)methyl-Sar]-3-[(γ-hydroxy)-N-MeLeu]-4-cyclosporin] | 6.82 |
| C/C=C/C[C@@H](C)[C@@H](O)[C@H]1C(=O)N[C@@H](CC)C(=O)N(C)[C@H](COCCCN2CCOCC2)C(=O)N(C)[C@@H](CC(C)(C)O)C(=O)N[C@@H](C(C)C)C(=O)N(C)[C@@H](CC(C)C)C(=O)N[C@@H](C)C(=O)N[C@H](C)C(=O)N(C)[C@@H](CC(C)C)C(=O)N(C)[C@@H](CC(C)C)C(=O)N(C)[C@@H](C(C)C)C(=O)N1C [[(R)-(3-(N-Morpholino)propoxy)methyl-Sar]-3-[(γ-hydroxy)-N-MeLeu]-4-cyclosporin] | 7.05 |
| CC=CCC(C)C(O)C1C(=O)NC(CC)C(=O)N(C)C(CSCCN(CC)CC)C(=O)N(C)C(C(C)C)C(=O)NC(C(C)C)C(=O)N(C)C(CC(C)C)C(=O)NC(C)C(=O)NC(C)C(=O)N(C)C(CC(C)C)C(=O)N(C)C(CC(C)C)C(=O)N(C)C(C(C)C)C(=O)N1C [[(S)-(2-(N,N-Diethylamino)ethylthio)methyl-Sar]-3-[N-MeVal]-4-cyclosporin] (cyclo([X3][Abu][NMeC](Et2NCH2CH2)[NMeV]V[NMeL]AA[NMeL][NMeL][NMeV]); configuration not given here) | 6.85 |
| CC=CCC(C)C(O)C1C(=O)NC(CC)C(=O)N(C)C(COCCCN(CC)CC)C(=O)N(C)C(CC(C)(C)O)C(=O)NC(C(C)C)C(=O)N(C)C(CC(C)C)C(=O)NC(C)C(=O)NC(C)C(=O)N(C)C(CC(C)C)C(=O)N(C)C(CC(C)C)C(=O)N(C)C(C(C)C)C(=O)N1C (stereo not shown) | 6.74 |
| C/C=C/C[C@@H](C)[C@@H](O)[C@H]1C(=O)N[C@@H](CC)C(=O)N(C)[C@H](CSCCCN2CCN(C)CC2)C(=O)N(C)[C@@H](CC(C)(C)O)C(=O)N[C@@H](C(C)C)C(=O)N(C)[C@@H](CC(C)C)C(=O)N[C@@H](C)C(=O)N[C@H](C)C(=O)N(C)[C@@H](CC(C)C)C(=O)N(C)[C@@H](CC(C)C)C(=O)N(C)[C@@H](C(C)C)C(=O)N1C | 7.05 |
| CC=CCC(C)C(O)C1C(=O)NC(CC)C(=O)N(C)C(CSCCN2CCCC2)C(=O)N(C)C(CC(C)(C)O)C(=O)NC(C(C)C)C(=O)N(C)C(CC(C)C)C(=O)NC(C)C(=O)NC(C)C(=O)N(C)C(CC(C)C)C(=O)N(C)C(CC(C)C)C(=O)N(C)C(C(C)C)C(=O)N1C (stereo not shown) | 6.96 |
| CC=CCC(C)C(O)C1C(=O)NC(CC)C(=O)N(C)C(COCCN(CC)CC)C(=O)N(C)C(C(C)CC)C(=O)NC(C(C)C)C(=O)N(C)C(CC(C)C)C(=O)NC(C)C(=O)NC(C)C(=O)N(C)C(CC(C)C)C(=O)N(C)C(CC(C)C)C(=O)N(C)C(C(C)C)C(=O)N1C [[(R)-(2-(N,N-Diethylamino)ethoxy)methyl-Sar]-3-[N-MeIle]-4-cyclosporin] (cyclo([X3][Abu][NMeS](Et2NCH2CH2)[NMeI]V[NMeL]AA[NMeL][NMeL][NMeV]); configuration not given here) | 6.80 |
| C/C=C/C[C@@H](C)[C@@H](O)[C@H]1C(=O)N[C@@H](CC)C(=O)N(C)[C@H](CSCCCN2CCOCC2)C(=O)N(C)[C@@H](CC(C)(C)O)C(=O)N[C@@H](C(C)C)C(=O)N(C)[C@@H](CC(C)C)C(=O)N[C@@H](C)C(=O)N[C@H](C)C(=O)N(C)[C@@H](CC(C)C)C(=O)N(C)[C@@H](CC(C)C)C(=O)N(C)[C@@H](C(C)C)C(=O)N1C | 7.30 |
| CC=CCC(C)C(O)C1C(=O)NC(CC)C(=O)N(C)C(CSCCCN2CCCC2)C(=O)N(C)C(CC(C)(C)O)C(=O)NC(C(C)C)C(=O)N(C)C(CC(C)C)C(=O)NC(C)C(=O)NC(C)C(=O)N(C)C(CC(C)C)C(=O)N(C)C(CC(C)C)C(=O)N(C)C(C(C)C)C(=O)N1C (stereo not shown) | 7.00 |

Same assay, conditions: Table 16, HCV replicon luciferase; read-out: Antiviral activity EC50

| Structure (SMILES) | pEC50 |
| --- | --- |
| C/C=C/C[C@@H](C)[C@@H](O)[C@H]1C(=O)N[C@@H](CC)C(=O)N(C)[C@H](CSCCCN2CCN(C)CC2)C(=O)N(C)[C@@H](CC(C)(C)O)C(=O)N[C@@H](C(C)C)C(=O)N(C)[C@@H](CC(C)C)C(=O)N[C@@H](C)C(=O)N[C@H](C)C(=O)N(C)[C@@H](CC(C)C)C(=O)N(C)[C@@H](CC(C)C)C(=O)N(C)[C@@H](C(C)C)C(=O)N1C | 7.40 |
| C/C=C/C[C@@H](C)[C@@H](O)[C@H]1C(=O)N[C@@H](CC)C(=O)N(C)[C@H](CSCCCN2CCOCC2)C(=O)N(C)[C@@H](CC(C)(C)O)C(=O)N[C@@H](C(C)C)C(=O)N(C)[C@@H](CC(C)C)C(=O)N[C@@H](C)C(=O)N[C@H](C)C(=O)N(C)[C@@H](CC(C)C)C(=O)N(C)[C@@H](CC(C)C)C(=O)N(C)[C@@H](C(C)C)C(=O)N1C | 7.40 |
